This test has as its target BioA (Mycobacterium tuberculosis, UniProt P9WQ81). Description: continuous coupled fluorescence enzyme assay. It is filed as biochemical.

Where a name gives a salt, the structure may show the parent alone.

As a reminder, the IC50 is the concentration needed to halve the response being measured. Low readings indicate greater potency, high ones weaker potency.

Chain of BioA (P9WQ81 whole entry): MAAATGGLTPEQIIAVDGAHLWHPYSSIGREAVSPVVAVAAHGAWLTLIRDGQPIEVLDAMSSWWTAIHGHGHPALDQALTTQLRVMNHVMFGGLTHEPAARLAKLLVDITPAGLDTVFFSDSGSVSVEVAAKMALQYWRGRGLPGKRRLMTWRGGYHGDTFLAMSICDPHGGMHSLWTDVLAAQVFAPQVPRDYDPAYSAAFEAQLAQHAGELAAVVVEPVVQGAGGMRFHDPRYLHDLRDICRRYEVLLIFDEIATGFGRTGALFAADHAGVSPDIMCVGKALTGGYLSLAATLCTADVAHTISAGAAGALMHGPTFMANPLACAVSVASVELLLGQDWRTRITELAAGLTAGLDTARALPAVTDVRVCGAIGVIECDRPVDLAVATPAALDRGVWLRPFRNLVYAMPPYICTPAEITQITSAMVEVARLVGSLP

In turn, `N[C@H]1C=C[C@@H](CCCO)C1` (racemic) [M-2, (±)-cis-3-(-4-Aminocyclopent-2-enyl)propan-1-ol hydrochloride salt] showed an IC50 of 57 ± 1.9 µM.
